The text below walks through data of patent US20140005234A1, “INSECTICIDAL N-SUBSTITUTED SULFILIMINE AND SULFOXIMINE PYRIDINE N-OXIDES” (Dow AgroSciences LLC, priority 2012, published 2014).

The test deals with Green Peach Aphid (GPA). The experiment in a line: Insecticidal testing for Green Peach Aphid (GPA), foliar spray on infested cabbage seedlings. It is filed as in vivo. Also noted: key to GPA Control @ 200 ppm: A: 80-100; B: More than 0-Less than 80; C: Not Tested; D: No activity noticed in this bioassay. The conditions noted are these: 200 ppm test compound sprayed on cabbage seedlings infested with GPA, graded after three days, Abbott-corrected % control, qualitative rating; for pest or weed control at 200 ppm: Myzus persicae, foliar, 72 h. The text has this:
Insecticidal Testing for Green Peach Aphid (GPA) GPA is the most significant aphid pest of peach trees, causing decreased growth, shriveling of the leaves, and the death of various tissues. It is also hazardous because it acts as a vector for the transport of plant viruses, such as potato virus Y and potato leafroll virus to members of the nightshade/potato family Solanaceae, and various mosaic viruses to many other food crops. GPA attacks such plants as broccoli, burdock, cabbage, carrot, cauliflower, daikon, eggplant, green beans, lettuce, macadamia, papaya, peppers, sweet potatoes, tomatoes, watercress, and zucchini, among other plants. GPA also attacks many ornamental crops such as carnation, chrysanthemum, flowering white cabbage, poinsettia, and roses. GPA has developed resistance to many pesticides. Certain compounds disclosed in this document were tested against GPA using procedures described as follows. Cabbage seedlings grown in 3-inch pots, with 2-3 small (3-5 cm) true leaves, were used as test substrate. The seedlings were infested with 20-50 GPA (wingless adult and nymph stages) one day prior to chemical application. Four pots with individual seedlings were used for each treatment. Test compounds (2 mg) were dissolved in 2 mL of acetone/methanol (1:1) solvent, forming stock solutions of 1000 ppm test compound. The stock solutions were diluted 5× with 0.025% Tween® 20 (Sigma-Aldrich, Inc., St. Louis, Mo.) in H2O to obtain the solution at 200 ppm test compound. A hand-held aspirator-type sprayer was used for spraying a solution to both sides of […] leaves until runoff. Reference plants (solvent check) were sprayed with the diluent only containing 20% by volume of acetone/methanol (1:1) solvent. Treated plants were held in a holding room for three days at approximately 25° C. and ambient relative humidity (RH) prior to grading. Evaluation was conducted by counting the number of live aphids per plant under a microscope. Percent Control was measured by using Abbott's correction formula (W. S. Abbott, “A Method of Computing the Effectiveness of an Insecticide” J. Econ. Entomol. 18 (1925), pp. 265-267) as follows: Corrected % Control=100*(X−Y)/X • where • X=No. of live aphids on solvent check plants and • Y=No. of live aphids on treated plants The results provided in Table 6 below are based on the qualitative ratings set forth in Table 5.

One may read the pest or weed control as how far the test organism was held down. In turn, `CC(c1ccc(C(F)(F)F)[n+]([O-])c1)/S(C)=N\C#N` (stereo not shown) [(5)] yielded a pest or weed control at 200 ppm of 80 to 100%.

`CS(=O)(Cc1ccc(C(F)(F)F)[n+]([O-])c1)=NC#N` (stereo not shown) [(9), [methyl(oxido){[1-oxido-6-(trifluoromethyl)pyridin-3-yl]methyl}-λ^6-sulfanylidene]cyanamide] gave a pest or weed control at 200 ppm of 80 to 100%.

In turn, `CC(C)(c1ccc(C(F)(F)F)[n+]([O-])c1)S(C)(=O)=NC#N` (stereo not shown) [(10)] had a pest or weed control at 200 ppm of 80 to 100%.

In the case of `CC(c1ccc(Cl)[n+]([O-])c1)S(C)(=O)=N[N+](=O)[O-]` (stereo not shown) [(18)], the pest or weed control at 200 ppm is 0 to 80%.

The molecule `CC(c1ccc(Cl)[n+]([O-])c1)S(C)(=O)=NC#N` (stereo not shown) [(19)] gave a pest or weed control at 200 ppm of 80 to 100%.

Regarding `CS(=O)(Cc1ccc(Cl)[n+]([O-])c1)=N[N+](=O)[O-]` (stereo not shown) [(20)], the “GPA Control @ 200 ppm” value is recorded as “D”.

`CC(c1ccc(C(F)(F)F)[n+]([O-])c1)S(C)(=O)=N[N+](=O)[O-]` (stereo not shown) [(21)] yielded a pest or weed control at 200 ppm of 80 to 100%.

`CS(=O)(Cc1ccc(C(F)(F)F)[n+]([O-])c1)=NC(N)=O` (stereo not shown) [(22)]: the “GPA Control @ 200 ppm” value is “D”.

With `CC(c1ccc(Cl)[n+]([O-])c1)S(C)(=O)=NC(N)=O` (stereo not shown) [(23)], the “GPA Control @ 200 ppm” value was “D”.

In turn, `CC(c1ccc(C(F)(F)F)[n+]([O-])c1)S(C)(=O)=NC#N` (stereo not drawn) [Compound (6), N-Cyano-S-[1-(6-trifluoromethyl-3-pyridinyl)ethyl]-S-methylsulfoximine N-oxide] yielded a pest or weed control at 200 ppm of 80 to 100%.
